Experimental data reported in paper PMC11361989, “A simple HPLC–MS/MS method for the determination of polymyxin B in human plasma and its application in the pharmacokinetic study in elderly patients infected with multidrug-resistant Gram-negative bacteria” (Frontiers in Pharmacology, 2024).
Like-named read-outs stand apart in the source and are kept apart here.

Assays:
[1] = Stability of working solutions of PB1 and PB2; assay type: physicochemical
Experimental: All the above solutions were stored at −70°C.

[2] = Stability of PB1 and PB2 in human plasma under different storage conditions; details: human plasma, n = 3
Experimental: The stock solutions of the calibrators and quality control (QC) samples should be prepared separately in the same way. The PB stock solution for calibrators and QC samples was prepared in water (1% FA) at 400.48 μg/mL for PB1 and 40.84 μg/mL for PB2. Consequently, working solutions for construction of calibrators and QC were prepared by serially diluting the stock solution with a 1% aqueous solution of FA. The concentrations of the working solutions for calibrators were 10.01, 30.03, 50.05, 100.12, 150.18, and 200.24 μg/mL for PB1 and 1.02, 3.06, 5.10, 10.21, 15.31, and 20.42 μg/mL for PB2. The concentrations of working solutions for QCs were prepared at 20.02 μg/mL (LQC), 90.11 μg/mL (MQC), and 180.22 μg/mL (HQC) for PB1 and 2.04 μg/mL (LQC), 9.18 μg/mL (MQC), and 18.36 μg/mL (HQC) for PB2. The working solution of IS (10.00 μg/mL) was prepared using methanol. All the above solutions were stored at −70°C. The calibrators and QC samples were obtained by spiking 90 μL of blank plasma with 10 μL of working solution at the corresponding concentration. The standard curves were in the range of 1.00–20.02 μg/mL and 0.10–2.04 μg/mL for PB1 and PB2, respectively.
Typically, 100 μL of the plasma sample was mixed with 10 μL IS working solution, and then, 300 μL 0.1% FA in methanol was added to the sample for protein precipitation. The mixture was vortexed for 3 min and centrifuged in an Eppendorf 5415D microcentrifuge (Eppendorf, Hamburg, Germany) at 11,000 g rpm for 10 min. Subsequently, 200 μL of the supernatant was transferred into a clean polypropylene tube and diluted with 150 μL of 0.1% FA in water. The mixture solution was vortexed for 3 min and centrifuged at 11,000 rpm for 10 min using the same centrifuge. Finally, 200 μL of the supernatant was transferred into an injection bottle, and 10 μL was injected into the HPLC–MS/MS for analysis.
The stability of the working solutions of PB1 and PB2 was evaluated. The short-term stability and long-term stability of PB1 and PB2 in human plasma were evaluated under the following conditions: placed at room temperature or 4°C for 24 h, frozen and thawed three times, and stored at −70°C for 85 days. The stability evaluation was conducted for both LQC and HQC concentrations.

[3] = Stability of PB1 and PB2 in human whole blood at room temperature or 4°C; details: clinical TDM whole blood, plasma by HPLC-MS/MS
Experimental: Moreover, the stability of PB1 and PB2 in whole blood was determined using redundant TDM whole-blood samples. A clinical whole-blood sample was obtained and immediately divided into 10 aliquots and placed at room temperature (25°C) or 4°C. At the designated time point, one of the aliquots was removed and immediately centrifuged to obtain 100 μL of a plasma sample. Then, all plasma samples were stored at −70°C until further analysis. Two parallel samples were tested at each storage condition, and the results were expressed as the percentage ratios of PB1 or PB2 concentrations measured at different time points to the initial PB1 or PB2 concentration.

Substance: polymyxin B2 [PB2]
- Stability of working solutions [1]: remained stable after storage at −70 °C for up to 7 days but not beyond 10 days

Substance: polymyxin B1 [PB1]
- Stability of working solutions ([1]; working solutions in 1% aqueous formic acid at LQC and HQC concentrations, stored at −70°C): remained stable after storage at −70 °C for up to 7 days but not beyond 10 days
- Stability in human plasma, RE ([2]; 4°C for 24 h, target PB1 2.00 / PB2 0.20 μg/mL (LQC)): +3.25%
- Stability in human plasma, RE ([2]; 4°C for 24 h, target PB1 9.01 / PB2 0.92 μg/mL (MQC)): −7.38%
- Stability in human plasma, RE ([2]; 4°C for 24 h, target PB1 18.02 / PB2 1.84 μg/mL (HQC)): −3.87%
- Stability in human plasma, RE ([2]; room temp. for 24 h, target PB1 2.00 / PB2 0.20 μg/mL (LQC)): −11.99%
- Stability in human plasma, RE ([2]; room temp. for 24 h, target PB1 9.01 / PB2 0.92 μg/mL (MQC)): +5.18%
- Stability in human plasma, RE ([2]; room temp. for 24 h, target PB1 18.02 / PB2 1.84 μg/mL (HQC)): +6.19%
- Stability in human plasma, RE ([2]; three freeze–thaw cycles, target PB1 2.00 / PB2 0.20 μg/mL (LQC)): −4.15%
- Stability in human plasma, RE ([2]; three freeze–thaw cycles, target PB1 9.01 / PB2 0.92 μg/mL (MQC)): +3.09%
- Stability in human plasma, RE ([2]; three freeze–thaw cycles, target PB1 18.02 / PB2 1.84 μg/mL (HQC)): +1.01%
- Stability in human plasma, RE ([2]; −70°C for 85 days, target PB1 2.00 / PB2 0.20 μg/mL (LQC)): −2.50%
- Stability in human plasma, RE ([2]; −70°C for 85 days, target PB1 9.01 / PB2 0.92 μg/mL (MQC)): +0.10%
- Stability in human plasma, RE ([2]; −70°C for 85 days, target PB1 18.02 / PB2 1.84 μg/mL (HQC)): +1.95%
- Concentration after storage in human blood ([3]; 4°C, 0 h (initial), parallel sample 1): 4690 ng/mL
- Concentration after storage in human blood ([3]; 4°C, 0 h (initial), parallel sample 2): 4720 ng/mL
- Concentration after storage in human blood ([3]; 4°C, 0.5 h, parallel sample 1): 4290 ng/mL
- Concentration after storage in human blood ([3]; 4°C, 0.5 h, parallel sample 2): 4120 ng/mL
- Concentration after storage in human blood ([3]; 4°C, 1 h, parallel sample 1): 4420 ng/mL
- Concentration after storage in human blood ([3]; 4°C, 1 h, parallel sample 2): 4350 ng/mL
- Concentration after storage in human blood ([3]; 4°C, 2 h, parallel sample 1): 5100 ng/mL
- Concentration after storage in human blood ([3]; 4°C, 2 h, parallel sample 2): 4890 ng/mL
- Concentration after storage in human blood ([3]; 4°C, 3 h, parallel sample 1): 5250 ng/mL
- Concentration after storage in human blood ([3]; 4°C, 3 h, parallel sample 2): 5320 ng/mL
- Concentration after storage in human blood ([3]; 4°C, 4 h, parallel sample 1): 5130 ng/mL
- Concentration after storage in human blood ([3]; 4°C, 4 h, parallel sample 2): 4950 ng/mL
- Concentration after storage in human blood ([3]; 4°C, 5 h, parallel sample 1): 4820 ng/mL
- Concentration after storage in human blood ([3]; 4°C, 5 h, parallel sample 2): 4820 ng/mL
- Concentration after storage in human blood ([3]; 4°C, 8 h, parallel sample 1): 4460 ng/mL
- Concentration after storage in human blood ([3]; 4°C, 8 h, parallel sample 2): 4850 ng/mL
- Concentration after storage in human blood ([3]; 4°C, 12 h, parallel sample 1): 4560 ng/mL
- Concentration after storage in human blood ([3]; 4°C, 12 h, parallel sample 2): 4680 ng/mL
- Concentration after storage in human blood ([3]; 4°C, 24 h, parallel sample 1): 4690 ng/mL
- Concentration after storage in human blood ([3]; 4°C, 24 h, parallel sample 2): 5280 ng/mL
- Concentration after storage in human blood ([3]; room temperature (25°C), 0 h (initial), parallel sample 1): 6890 ng/mL
- Concentration after storage in human blood ([3]; room temperature (25°C), 0 h (initial), parallel sample 2): 6660 ng/mL
- Concentration after storage in human blood ([3]; room temperature (25°C), 0.5 h, parallel sample 1): 6830 ng/mL
- Concentration after storage in human blood ([3]; room temperature (25°C), 0.5 h, parallel sample 2): 6630 ng/mL
- Concentration after storage in human blood ([3]; room temperature (25°C), 1 h, parallel sample 1): 6130 ng/mL
- Concentration after storage in human blood ([3]; room temperature (25°C), 1 h, parallel sample 2): 6130 ng/mL
- Concentration after storage in human blood ([3]; room temperature (25°C), 2 h, parallel sample 1): 6700 ng/mL
- Concentration after storage in human blood ([3]; room temperature (25°C), 2 h, parallel sample 2): 6150 ng/mL
- Concentration after storage in human blood ([3]; room temperature (25°C), 3 h, parallel sample 1): 7160 ng/mL
- Concentration after storage in human blood ([3]; room temperature (25°C), 3 h, parallel sample 2): 6780 ng/mL
- Concentration after storage in human blood ([3]; room temperature (25°C), 4 h, parallel sample 1): 6420 ng/mL
- Concentration after storage in human blood ([3]; room temperature (25°C), 4 h, parallel sample 2): 6420 ng/mL
- Concentration after storage in human blood ([3]; room temperature (25°C), 5 h, parallel sample 1): 6890 ng/mL
- Concentration after storage in human blood ([3]; room temperature (25°C), 5 h, parallel sample 2): 6710 ng/mL
- Concentration after storage in human blood ([3]; room temperature (25°C), 8 h, parallel sample 1): 6970 ng/mL
- Concentration after storage in human blood ([3]; room temperature (25°C), 8 h, parallel sample 2): 6650 ng/mL
- Concentration after storage in human blood ([3]; room temperature (25°C), 12 h, parallel sample 1): 7950 ng/mL
- Concentration after storage in human blood ([3]; room temperature (25°C), 12 h, parallel sample 2): 8190 ng/mL
- Concentration after storage in human blood ([3]; room temperature (25°C), 24 h, parallel sample 1): 7050 ng/mL
- Concentration after storage in human blood ([3]; room temperature (25°C), 24 h, parallel sample 2): 6720 ng/mL
